Consider one compound from patent US9675712B2, “pH sensitive fluorescent polydiacetylene liposome and delivery vehicle comprising same” (priority 2012, dated 2017).

For the assay, the system named is E. coli 0-157(ATCC 43894). As to the kind of experiment: Anti-bacterial analysis of drug release in vitro (plaque / growth inhibition area on agar plate). Type of assay: cell-based. The settings on record: dish (c): standard solution in PBS; 20 μl, 37° C. overnight. How it is done:
In order to prepare an LB broth and an agar medium, 12.5 g of the LB broth and 7.5 g of the plant agar were transferred to 1 L sterile flask. The components were dissolved in 500 mL of distilled water or deionized water, and flask was tightly covered with an aluminum foil, a plug or a cap similar thereto. The mixture was heated until a boiling point was reached to dissolve the agar, and sterilized by autoclave at 121-124° C. for 15 mins, and then waited until the autoclave was cooled and a pressure was 0. The medium was removed from the autoclave and cooled to room temperature. When the LB agar was cooled to a temperature (approximately 45° C.) which is still considered hot by touch, 0.5 cm or ¼ layer of agar was poured into the Petri dish. It corresponds to approximately 20 to 25 mL volumes of the agar. The Petri dish was positioned on a flat surface until the agar was completely solidified for 30 to 40 mins. The Petri dish containing the solid agar was stored at 4° C.
300 μl of bacteria (E. coli) was added to 3.0 mL of the LB broth, and the culture fluid was strongly shaken. Then, the culture fluid was cultured in an incubator shaking the bacteria at 37° C. overnight. […]
First, a growth inhibition area (plaque) will be shown in the fusible bacterial habitat in the case in which the drug is smoothly released from the liposome. […] Third, the analysis method needs to be quantitative.

In the case of `CC1(C)S[C@@H]2[C@H](NC(=O)[C@H](N)c3ccccc3)C(=O)N2[C@H]1C(=O)O` [ampicillin standard solution, ampicillin], the growth inhibition area result is given as “growth inhibition area was generally observed”.
